Read-outs that look alike come from different tables or passages of the source. Each block holds one compound with its values, some of them ahead of it.
How the values were obtained:
[1] = target: T1, TF-VIIa (Homo sapiens, UniProt P08709); experiment: TF-VIIa Assay; assay type: biochemical
T1 construct: 2nM recombinant human factor VIIa; purchased American Diagnostica, Greenwich CT; host or cells: soluble TF made in house in E. coli

[2] = target: T2, Human factor Xa (Homo sapiens, UniProt P00742); experiment: Xa Assay
T2 sequence (P00742 235-488 limits assumed): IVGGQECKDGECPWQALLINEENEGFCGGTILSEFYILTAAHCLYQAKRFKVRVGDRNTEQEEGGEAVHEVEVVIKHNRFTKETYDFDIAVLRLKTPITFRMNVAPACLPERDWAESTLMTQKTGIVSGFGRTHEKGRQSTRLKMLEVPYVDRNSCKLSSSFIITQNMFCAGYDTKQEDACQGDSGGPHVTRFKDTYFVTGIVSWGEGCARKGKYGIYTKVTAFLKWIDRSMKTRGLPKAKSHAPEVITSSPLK
T2 sequence (P00742 41-179 limits assumed): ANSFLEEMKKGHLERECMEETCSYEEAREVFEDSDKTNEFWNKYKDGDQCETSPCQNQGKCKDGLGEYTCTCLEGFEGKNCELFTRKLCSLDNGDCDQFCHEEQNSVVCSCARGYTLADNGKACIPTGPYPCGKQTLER

[3] = target: T2, Human factor Xa
[4] = read-out: IC50 or % Inhibition Factor Xa (30 µM), cells given as a plain number (IC50)
[5] = read-out: IC50 or % Inhibition TF-VIIa (30 µM); cells given as a plain number (IC50)
[6] = read-out: IC50 or % Inhibition TF-VIIa (30 µM); cells without % sign: IC50

T1 sequence (P08709 213-466 limits assumed): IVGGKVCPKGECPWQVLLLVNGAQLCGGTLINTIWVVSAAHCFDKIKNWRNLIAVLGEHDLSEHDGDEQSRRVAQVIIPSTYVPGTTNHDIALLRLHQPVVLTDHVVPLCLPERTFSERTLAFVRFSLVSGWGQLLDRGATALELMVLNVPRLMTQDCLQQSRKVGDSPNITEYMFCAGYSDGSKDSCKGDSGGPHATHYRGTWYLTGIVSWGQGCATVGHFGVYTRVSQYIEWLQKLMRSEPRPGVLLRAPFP
T1 sequence (P08709 61-212 limits assumed): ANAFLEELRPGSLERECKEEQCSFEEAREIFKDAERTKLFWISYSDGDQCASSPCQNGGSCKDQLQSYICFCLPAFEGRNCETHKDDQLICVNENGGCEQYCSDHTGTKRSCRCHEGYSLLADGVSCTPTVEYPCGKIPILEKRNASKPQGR
T1 sequence (P13726 33-251 partner limits assumed): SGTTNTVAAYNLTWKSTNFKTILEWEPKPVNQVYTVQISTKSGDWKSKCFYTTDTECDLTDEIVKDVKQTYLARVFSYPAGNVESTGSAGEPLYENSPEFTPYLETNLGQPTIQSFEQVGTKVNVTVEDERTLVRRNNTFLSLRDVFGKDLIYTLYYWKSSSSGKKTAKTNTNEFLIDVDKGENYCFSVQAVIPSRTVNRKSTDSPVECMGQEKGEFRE

SMILES: COc1ccc(-c2cnc(NCCc3ccccc3)c(=O)n2CC(=O)NCCCCNC(=N)N)cc1 [Example 14]
IC50 ([1]; cells given as a plain number (IC50); read-out: IC50 or % Inhibition TF-VIIa (30 µM)): > 100 µM
IC50 [2]: > 100 µM

SMILES: N=C(N)c1ccc(CNC(=O)Cn2c(-c3ccccc3)cnc(NS(=O)(=O)c3ccccc3)c2=O)cc1 [Example 105]
IC50 or % Inhibition Factor Xa (30 µM) ([2]; % inhibition at 30 µM): 5%

SMILES: CC(C)Nc1nc(Cl)c(-c2cccc([N+](=O)[O-])c2)n(CC(=O)NCc2ccc(C#N)cc2)c1=O [Example 59]
IC50 or % Inhibition Factor Xa (30 µM) ([2]; % inhibition at 30 µM): 2%

SMILES: Nc1cccc(-c2c(Cl)nc(NC3CCC3)c(=O)n2CC(=O)NCCCc2ccnc(N)n2)c1 [Example 26]
IC50 or % Inhibition Factor Xa (30 µM) ([2]; % inhibition at 30 µM): 5%

SMILES: CCc1c(Cl)nc(NCCN2CCOCC2)c(=O)n1CC(=O)NCc1ccc(C(=N)N)cc1 [1471-60]
IC50 or % Inhibition Factor Xa (30 µM) [3]: 0%
IC50 [1, 5]: 13 µM

SMILES: O=C(Cn1c(Cc2ccccc2)c(Cl)nc(NCCc2ccc(Cl)cc2)c1=O)NCCc1ccncc1 [Example E-0060]
% Inhibition Factor Xa (100 µM) [3]: 0%
% Inhibition TF-VIIa (100 µM) [1]: 0%

SMILES: O=C(Cn1c(-c2ccccc2)c(Cl)nc(NCc2ccncc2)c1=O)NCCc1ccncc1 [Example E-0016]
% Inhibition Factor Xa (100 µM) [3]: 0%
% Inhibition TF-VIIa (100 µM) [1]: 0%

SMILES: N=C(N)c1ccc(CNC(=O)Cn2c(-c3cccc(N)c3)c(Cl)nc(NC3CCCC3)c2=O)c(F)c1 [1543-34]
IC50 or % Inhibition Factor Xa (30 µM) [3]: 20%
IC50 [1, 6]: 0.08 µM

SMILES: O=C(Cn1c(-c2ccc3c(c2)OCO3)c(Cl)nc(NCc2ccncc2)c1=O)NCCc1ccncc1 [Example E-0048]
% Inhibition Factor Xa (100 µM) [3]: 0%
% Inhibition TF-VIIa (100 µM) [1]: 0%

SMILES: Cc1c(Cl)nc(NCCc2cccnc2)c(=O)n1CC(=O)NCCc1ccncc1 [Example E-0005]
% Inhibition Factor Xa (100 µM) [3]: 0%
% Inhibition TF-VIIa (100 µM) [1]: 0%

SMILES: N=C(N)c1ccc(CNC(=O)Cn2c(-c3ccccc3)c(Cl)nc(NC3CCCc4ccccc43)c2=O)cc1 (stereo not drawn) [1507-16]
IC50 or % Inhibition Factor Xa (30 µM) [3]: 18%
IC50 [1, 5]: 5.8 µM

SMILES: O=C(Cn1c(-c2ccccc2)c(Cl)nc(NCCc2ccc(Cl)cc2)c1=O)NCCc1ccncc1 [Example E-0012]
% Inhibition Factor Xa (100 µM) [3]: 0%
% Inhibition TF-VIIa (100 µM) [1]: 0%

SMILES: O=C(Cn1c(Cc2ccccc2)c(Cl)nc(NCCN2CCOCC2)c1=O)NCCc1ccncc1 [Example E-0063]
% Inhibition Factor Xa (100 µM) [3]: 0%
% Inhibition TF-VIIa (100 µM) [1]: 0%

SMILES: Nc1ccc(CNC(=O)Cn2c(CCc3ccccc3)c(Cl)nc(NCCc3ccccc3)c2=O)cn1 [Example 10, 3-(2-Phenylethylamino)-5-chloro-6-phenethyl-1-(2-amino-5-methylcarboxamidomethylpyridinyl)pyrazinone]
IC50 or % Inhibition Factor Xa (30 µM) ([2]; cells given as a plain number (IC50)): >0 µM

SMILES: CCc1c(Cl)nc(NCCc2cccc(Cl)c2)c(=O)n1CC(=O)NCc1ccc(C(=N)N)cc1 [1471-62]
IC50 or % Inhibition Factor Xa (30 µM) [3]: 0%
IC50 or % Inhibition TF-VIIa (30 µM) [1]: 4%

The remaining lines, values ahead:

IC50 [2, 4]: > 30 µM
SMILES: CNc1cccc(-c2c(Cl)nc(NCCc3ccccc3)c(=O)n2CC(=O)NCc2ccc(C(=N)N)cc2)c1 [compound 95]

IC50 [2, 4]: > 30 µM
SMILES: N=C(N)c1ccc(CNC(=O)Cn2c(-c3ccccc3)c(Cl)nc(N3CCC3)c2=O)cc1 [1522-28]

IC50 or % Inhibition Factor Xa (30 µM) ([2]; % inhibition at 30 µM): 10%
SMILES: N=C(N)c1ccc(CNC(=O)Cn2c(-c3ccccc3)c(Cl)nc(NCCCCN)c2=O)cc1 [Example 46]

IC50 or % Inhibition Factor Xa (30 µM) ([2]; % inhibition at 30 µM): 4%
SMILES: N=C(N)c1ccc(CNC(=O)Cn2c(-c3ccccc3)c(Cl)nc(NCCN)c2=O)cc1 [Example 44]

IC50 [2]: > 30 µM
SMILES: CS(=O)(=O)Nc1cccc(-c2c(Cl)nc(NCCc3ccccc3)c(=O)n2CC(=O)NCc2ccc(C(=N)N)cc2)c1 [Example 101]

IC50 or % Inhibition Factor Xa (30 µM) ([2]; % inhibition at 30 µM): 9%
SMILES: N=C(N)c1ccc(CNC(=O)Cn2c(-c3ccccc3)c(Cl)nc(NCCCN)c2=O)cc1 [Example 45]

IC50 or % Inhibition Factor Xa (30 µM) ([2]; % inhibition at 30 µM): 0%
SMILES: N=C(N)c1ccc(CNC(=O)Cn2c(-c3ccccc3)c(Cl)nc(CN)c2=O)cc1 [Example 18]

IC50 or % Inhibition Factor Xa (30 µM) [3]: 34%
IC50 [1, 6]: 0.64 µM
SMILES: N=C(N)c1ccc(CNC(=O)Cn2c(-c3cccc(N)c3)c(Cl)nc(NCCN3CCCC3)c2=O)cc1 [1543-03]

IC50 or % Inhibition Factor Xa (30 µM) [3]: 11%
IC50 or % Inhibition TF-VIIa (30 µM) [1]: 27%
SMILES: Cc1cc(Cl)cc(Cl)c1CNc1nc(Cl)c(-c2ccccc2)n(CC(=O)NCc2ccc(C(=N)N)cc2)c1=O [1512-45]

IC50 [2, 4]: > 30 µM
SMILES: N=C(N)c1ccc(CNC(=O)Cn2c(-c3ccccc3)c(Cl)nc(NCCc3cccs3)c2=O)cc1 [1507-18]

IC50 or % Inhibition Factor Xa (30 µM) [3]: 3%
IC50 [1, 5]: 19.2 µM
SMILES: COc1cccc(CNc2nc(Cl)c(-c3ccccc3)n(CC(=O)NCc3ccc(C(=N)N)cc3)c2=O)c1OC [1512-02]

IC50 or % Inhibition Factor Xa (30 µM) [3]: 14%
IC50 ([1]; cells without % sign: IC50; read-out: IC50 or % Inhibition TF-VIIa (30 µM)): 0.06 µM
SMILES: CNc1nc(Cl)c(-c2cccc(N)c2)n(CC(=O)NCc2ccc(C(=N)N)cc2)c1=O [1543-05]

Reference: patent EP1202975B1, “SUBSTITUTED POLYCYCLIC ARYL AND HETEROARYL PYRAZINONES USEFUL FOR SELECTIVE INHIBITION OF THE COAGULATION CASCADE” (Pharmacia Corporation, priority 1999, dated 2000)
